Data on 4 compounds can be found in PMC7053711, “A G protein–coupled receptor mediates neuropeptide-induced oocyte maturation in the jellyfish Clytia” (PLoS Biology, 2020).

The test system of test [1] is wild-type (WT) isolated female gonads. In words: Gonad spawning assay, wild-type isolated gonads. On the set-up: species or system Clytia hemisphaerica. Particulars: for Gonads spawning (number) / Percentage of spawning gonads: 4mM BrcAMP. Here is the method: (§1) We performed a series of oocyte maturation and spawning assays, comparing the responses of wild-type and MIHR mutant isolated gonads and oocytes to different stimuli (Fig 4).
(§2) Sexually mature MIHR mutant medusae from colonies n5-13 and n5-23 and wild-type medusae were cultured on the same day–night cycle. Individual gonads were dissected in the evening after afternoon spawning. To test the light response, one group of each was transferred to 100 μL MFSW in wells of 96-well plastic plates, covered overnight, and re-exposed to white light the following day. To test responses to MIH and cAMP, other groups of dissected gonads were cultured overnight in constant light, then transferred to 96-well plastic plates for two hours. MIH was added to wells as an equal volume of 200 nM WPRPamide (GenScript) stock in MFSW was added to give a final concentration of 100 nM. Alternatively, a stock of 20 mM bromo adenosine 3′,5′cyclic monophosphate (Br-cAMP–Fluka; Sigma Aldrich) in distilled water was added to give a final concentration of 4 mM. Gonads were washed after 5 minutes incubation in Br-cAMP. Oocyte maturation was scored after 30 minutes as germinal vesicle breakdown (GVBD), i.e., visible dissolution of the oocyte nuclear membrane upon entry into M phase, which in all cases was followed by spawning about 1 hour later.
(§3) Supplementary file pbio.3000614.s013.xlsx: S3 Data Numerical data corresponding to Fig 4A and 4C. The first tab collects all the raw data from 3 independent gonad spawning assays. Information corresponding to the Fisher exact tests is also shown. […] The means and standard deviations were used to prepare the graph in Fig 4C. Information corresponding to the Fisher exact tests is also shown. (XLSX) Click here for additional data file.

The test system of test [2] is fully grown oocytes isolated from MIHR mutant (n5-23) gonads. Put plainly: Oocyte maturation assay, MIHR mutant isolated oocytes (GVBD). Format: cell-based, Clytia hemisphaerica. The following applies: for Oocyte maturation (number) / Percentage of Oocytes maturing: 4mM BrcAMP, MIH R K.O.
Excerpt: (§4) Fig 4 Oocyte maturation failure in MIHR mutant medusae. Oocyte maturation assays performed using isolated gonads (A, B) or isolated oocytes (C) from MIHR mutant jellyfish compared to WT. In A and C, bar heights represent mean percentages of 3 independent experiments and error bars show standard deviations. Total gonad or oocyte numbers for each treatment are indicated in gray. (A) Spawning response of isolated gonads from WT and n5-23 female medusae. Three treatments were compared as indicated above each panel: Light: light stimulation after incubation in the dark; MIH: treatment of light-maintained gonads with 100 nM WPRPamide; cAMP: treatment of light-maintained gonads with 4 mM Br-cAMP. […] Full datasets from three independent experiments are available in S3 Data. (B) Light microscope images illustrating gonads from an equivalent experiment performed with n5-13 female MIHR mutant medusae 120 minutes after the indicated treatments. Scale bar: 500 μm. […] Full datasets from 3 independent experiments are available in S3 Data. Br-cAMP, bromoadenosine 3′,5′-cyclic monophosphate; cAMP, cyclic adenosine monophosphate; KO, knockout; MIH, maturation-inducing hormone; MIHR, MIH receptor; WT, wild-type.
(§5) Fully grown oocytes were isolated manually from dissected gonads of wild-type and MIHR KO mutant jellyfish prepared as above. Maturation assays were performed in wells of 96-well plates or small plastic petri dishes lined with 2% agarose in MFSW. Spontaneous maturation occurs at a low frequency in control oocytes. To test MIH-induced maturation, 10 μL WPRPamide from 1 μM solution in MFSW was added to a final concentration of 100 nM. In some experiments, Br-cAMP from a 20 mM stock in H2O was used at a final concentration of 4 mM. GVBD was scored at 30 minutes, every 5 minutes, depending on experiments.
as §3

Test [3] deals with fully grown oocytes isolated from WT gonads. In words: Oocyte maturation assay, wild-type isolated oocytes (GVBD). Particulars: for Oocyte maturation (number) / Percentage of Oocytes maturing: 4mM BrcAMP, wild type. Format: cell-based, Clytia hemisphaerica.
Excerpt: as §4, §5, §3

Test [4] concerns MIHR mutant (n5-23, n5-13) isolated female gonads. In words: Gonad spawning assay, MIHR mutant isolated gonads. On the set-up: species or system Clytia hemisphaerica. Particulars: for Gonads spawning (number) / Percentage of spawning gonads: 4mM BrcAMP, MIH R K.O. Here is the method: as §1, §2, §3
Test [5] deals with Clytia MIHR. Put plainly: GPCR deorphanization assay, luminescence response to peptides at 1 μM (CHO-K1 cells, Gα-16, GFP-apoaequorin). Format: cell-based, Clytia hemisphaerica. The following applies: peptide 1E-6M, normalised to Platynereis FLamide receptor + 1 μM AKYFL-NH2, n = 3. An excerpt: We used a cell culture–based GPCR deorphanization assay to identify the MIH receptor from our candidate shortlist. cDNAs for each candidate were transfected into Chinese Hamster ovary K1 (CHO-K1) cells along with the promiscuous Gα protein Gα-16, and an aequorin-GFP luminescence reporter that measures Ca^2+ mobilization downstream of this heterologous Gα protein [27, 28]. We first screened the 16 candidate Clytia GPCRs against a mixture of 33 synthetic amidated peptides (including MIHs) predicted to be generated from previously identified putative Clytia neuropeptide precursors and one additional one identified from transcriptome data. Given our imperfect knowledge of pro-peptide processing in cnidarians, some of the synthetic peptides may not correspond to endogenous peptides. Only one of the 16 GPCRs was activated by this peptide mixture. This receptor responded well to all 4 synthetic Clytia MIH tetrapeptides, as well as to related Cladonema MIH peptides that can also activate Clytia oocyte maturation, but not to other Clytia peptide mixtures or poorly active MIH penta-/tripeptides. We termed this Clytia GPCR the Maturation Inducing Hormone Receptor (MIHR). The activity of individual peptides at 1 μM to stimulate the MIHR closely matched their in vivo ability to induce oocyte maturation (Fig 1B).
(§6) Cell culture GPCR ligand response assays were performed as described. Briefly, CHO-K1 cells were cultured in Ham’s F12 Nut Mix medium (Thermo Fisher Scientific) with 10% foetal bovine serum. Cells were seeded in 96-well plates at approximately 10,000 cells/well and transfected the following day with pcDNA3.1(+) plasmids encoding each of the 16 candidate Clytia GPCRs (S2 Text), the promiscuous Gα-16 protein [65], and a reporter construct GFP-apoaequorin [66] (60 ng each) using the transfection reagent TurboFect (Thermo Fisher Scientific). After 2 days of expression, the medium was removed and replaced with Hank’s balanced salt solution (HBSS) supplemented with 1.8 mM Ca2+, 10 mM glucose, and […] coelenterazine h (Promega, Madison, WI). After incubation at 37 °C for 2 hours, cells were tested by adding synthetic peptides (GenScript) in HBSS supplemented with 1.8 mM Ca2^+ and 10 mM glucose. A list of all synthetic peptides used is provided in S2 Table. Luminescence was recorded for 45 seconds in a plate reader (BioTek Synergy Mx or Synergy H4; BioTek, Winooski, VT). Data were integrated over the 45-second measurement period and recorded as technical triplicates in each case. Data were normalized using the response of Platynereis FLamide receptor to 1 μM AKYFL-NH2 [28]. Dose–response curves were obtained using concentrations between 0.01 nM and 100 μM for each peptide. Data for dose–response curves were recorded in triplicate for each concentration and the experiment was repeated independently 3 times. Dose–response curves were fitted with a four-parameter curve using Prism 6 (GraphPad, La Jolla, CA) and were normalized to the calculated upper plateau values (100% activation).
Supplementary file pbio.3000614.s011.xlsx: S1 Data Numerical data corresponding to Fig 1B. Raw luminescence values obtained in triplicate for each of the neuropeptide combinations tested against the MIHR in the deorphanization assay are provided. In the right-hand table, the raw luminescence values obtained in quadruple for the positive and negative controls are provided. In the lower table, means and standard errors of the mean of the luminescence values obtained for each neuropeptide combination and controls are also shown, as well as the values normalized to the positive control, which were used to prepare the graph shown in Fig 1B. MIHR, MIH receptor. (XLSX) Click here for additional data file.

Test [6] deals with Clytia MIHR. In words: Dose–response curves of Clytia MIHR, luminescence (CHO-K1 cells, Gα-16, GFP-apoaequorin). On the set-up: key to Span (best-fit value) / Bottom (best-fit value): % activation, normalized to fitted upper plateau (100%). Type of test: cell-based, Clytia hemisphaerica. Particulars: for EC50: four-parameter fit, variable slope, triplicate; for HillSlope / LogEC50: best-fit value; for Span / Top: best-fit value (luminescence). As to the method: The Clytia MIH amidated peptides are produced from two precursor genes Che-pp4 (generating multiple copies of WPRAamide, WPRYamide, and WPRPamide) and Che-pp1 (multiple copies of WPRPamide and RPRGamide).
as §6
Supplementary file pbio.3000614.s012.xlsx: S2 Data Numerical data corresponding to Fig 1C. The first three tabs show statistical values obtained using Prism 6 software (GraphPad, La Jolla, CA) from the raw luminescence values for 3 independent dose–response experiments. The raw luminescence values are shown, as well as the values normalized with respect to the maximum. […] MIH, maturation-inducing hormone. (XLSX) Click here for additional data file.

[7] abbreviates: wild type, replicate 1, total 12.
Setting [8] is: wild type, replicate 2, total 10.
Setting [9] is: wild type, replicate 3, total 10.
The mark [10] stands for this setting: BrcAMP, pooled n=32, Fisher exact test vs MIHR KO not significant at p < .01.
Where [11] appears, read: BrcAMP, pooled n=92, Fisher exact test vs WT 0.215946, not significant at p < .01.
Setting [12] is: BrcAMP, pooled n=59, Fisher exact test vs MIHR KO 0.215946, not significant at p < .01.
Where [13] appears, read: BrcAMP, pooled n=29, Fisher exact test vs WT not significant at p < .01.
Where [14] appears, read: log(agonist) vs. response, variable slope (four parameters), fit of third dataset.

Peptide text beside a SMILES is read from it.

As a reminder, the EC50 is the concentration at which the effect is half-maximal.

`Nc1ncnc2c1nc(Br)n2[C@@H]1O[C@@H]2COP(=O)(O)O[C@H]2[C@H]1O` [BrcAMP]: the “Gonads spawning (number)” value is on record as 12 in test [1] (setting [7]); 10 in test [1] (setting [8]); 10 in test [1] (setting [9]); 4 in test [4] (replicate 1, total 4); 18 in test [4] (replicate 2, total 18); 7 in test [4] (replicate 3, total 7). The “Percentage of spawning gonads” value in test [1] (setting [7]) was 100; in test [1] (setting [8]), 100; in test [1] (setting [9]) it was 100; in test [4] (replicate 1, total 4) it was 100; in test [4] (replicate 2, total 18) it was 100; in test [4] (replicate 3, total 7), 100. The “Non-spawning gonads, WT NO” value in test [1] (setting [10]) was 0. The “Spawning gonads, WT YES” value in test [1] (setting [10]) came out at 32. In addition, the “Percentage of spawning gonads (summary)” value is 100 in test [1] (BrcAMP, wild type, summary of 3 replicates) and 100 in test [4] (BrcAMP, MIHR K.O., summary of 3 replicates). In addition, the “Oocyte maturation (number)” value is listed as 30 in test [2] (replicate 1, total 31); 12 in test [2] (replicate 2, total 14); 41 in test [2] (replicate 3, total 47.00); 15 in test [3] (replicate 1, total 15); 21 in test [3] (replicate 2, total 26); 13 in test [3] (replicate 3, total 18.00). In addition, the “Percentage of Oocytes maturing” value turned out to be 96.77 in test [2] (replicate 1, total 31); 85.71 in test [2] (replicate 2, total 14); 87.23 in test [2] (replicate 3, total 47.00); 100.00 in test [3] (replicate 1, total 15); 80.77 in test [3] (replicate 2, total 26); 72.22 in test [3] (replicate 3, total 18.00). Moreover, the “% oocytes maturing, pooled” value in test [2] (BrcAMP, MIHR KO, pooled n=92) turned out to be 90.2174%; in test [3] (BrcAMP, WT, pooled n=59), 83.0508%. In addition, the “Maturing oocytes, MIHR KO YES” value in test [2] (setting [11]) stood at 83. Further, in test [2] (setting [11]), the “Non-maturing oocytes, MIHR KO NO” value is given as 9. The “Maturing oocytes, WT YES” value in test [3] (setting [12]) was 49. Also, the “Non-maturing oocytes, WT NO” value in test [3] (setting [12]) came to 10. Further, the “Non-spawning gonads, MIHR KO NO” value in test [4] (setting [13]) stood at 0. Besides, the “Spawning gonads, MIHR KO YES” value in test [4] (setting [13]) stood at 29.

With `N=C(N)NCCC[C@H](NC(=O)[C@@H]1CCCN1C(=O)[C@@H](N)CCCNC(=N)N)C(=O)NCC(N)=O` [RPRGa] (H-RPRG-NH2; N-terminus assumed), the “Normalised response (to positive control), mean” value (shortened to “Normalised response”) in the test on Clytia MIHR [5] came out at 0.2052. Moreover, the EC50 with Clytia MIHR [6] (dataset/experiment 1) was 724 nM. The EC50 with Clytia MIHR [6] (dataset/experiment 2) was determined as 2210 nM. Besides, in the test with Clytia MIHR [6] (first dataset), the HillSlope was 1.15, the LogEC50 was -6.14, the Span was 80378 and the Top is recorded as 82566. Besides, in the test with Clytia MIHR [6] (setting [14]), the “HillSlope (best-fit value)” value is reported as 1.139, the “LogEC50 (best-fit value)” value is recorded as -5.859 and the “Span (best-fit value)” value was determined as 89.45. In the test with Clytia MIHR [6] (second dataset), the HillSlope turned out to be 0.9524, the LogEC50 is on record as -5.656, the Span was determined as 33216 and the Top is 36059. For the same compound, the “EC50 / relative activity on MIHR” value with Clytia MIHR [6] (three independent dose–response experiments) was “the lowest”.

AWPRP-NH2 [AWPRPa]: in the test on Clytia MIHR [5], the “Normalised response” value is on record as 0.02128.

With “RPRP-NH2 [RPRPa, Cladonema MIH tetrapeptide, RPRP-NH2]”, the “Normalised response” value in the test on Clytia MIHR [5] is 0.33.
